From the supplement of paper PMC7455731

Assay: collision cross section (DTIM-MS, N2); higher = larger ion
Procedure: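 Collision cross section (CCS) of drug and natural-product chemical standards (validation set 2, measured in this paper). Three independent measurements were made across 2 months; the value taken is their mean (avg_ccs), for the ion adduct given.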

| Structure (SMILES) | collision cross section (ion adduct: [M+H]+) [Å²] | collision cross section (ion adduct: [M-H]-) [Å²] |
| --- | --- | --- |
| COC1=CC(=O)O[C@@H](CCc2ccccc2)C1 [Dihydrokavain] | 149.11 | – |
| CCC(C)(C)C(=O)O[C@H]1C[C@@H](C)C=C2C=C[C@H](C)[C@H](CC[C@@H]3C[C@@H](O)CC(=O)O3)[C@H]21 [Simvastatin] | 207.6 | 205.74 |
| CC1(C)CCC[C@@]2(C)OC(=O)C=C12 | 138.93 | – |
| CC(C)C1=CC2=CC[C@@H]3[C@](C)(CCC[C@@]3(C)C(=O)O)[C@H]2CC1 [Abietic acid] | 174.96 | 185.72 |
| Nc1nc(Cl)nc2c1ncn2[C@@H]1O[C@H](CO)[C@@H](O)[C@@H]1F [Clofarabine] | 158.19 | 162.03 |
| CC(C)NC(=O)N1CC(=O)N(c2cc(Cl)cc(Cl)c2)C1=O [Iprodione] | 180.27 | – |
| CC(C)=CCC[C@](C)(O)[C@H]1CC[C@]2(C)[C@@H]1[C@H](O)C[C@@H]1[C@@]3(C)CC[C@H](O)C(C)(C)[C@@H]3[C@@H](O[C@@H]3O[C@H](CO)[C@@H](O)[C@H](O)[C@H]3O)C[C@]12C [Ginsenoside Rh1] | – | 266.62 |
| C=C1C(=O)O[C@H]2[C@H]1CC/C(C)=C\CC[C@@]1(C)O[C@@H]21 [Parthenolide] | 154.23 | – |
| C[C@H]1C(=O)O[C@@H]2CCN3CC=C(COC(=O)[C@](C)(O)[C@]1(C)O)[C@H]23 [Crotaline] | 176.34 | – |
| OC[C@@H](O)[C@@H](O)[C@@H](O)[C@@H](O)CO [Allitol] | – | 132.47 |
| CNC[C@H](O)[C@@H](O)[C@H](O)[C@H](O)CO [Meglumine] | 141.05 | 139.8 |
| Nc1[nH]c(=O)ncc1F [Fluorocytosine] | 119.97 | – |
| CC1(C)CCC[C@](C)([C@H]2CC[C@]3(C)[C@@H]2[C@H](O)C[C@@H]2[C@@]4(C)CC[C@H](O)C(C)(C)[C@@H]4CC[C@]23C)O1 [Panaxadiol] | 218.82 | – |
| C[C@@]12CCC3[C@@](CC[C@@H]4[C@](C)(C(=O)O)CCC[C@@]34C)(CC1=O)C2 (some centres undefined) [Isosteviol] | 180.22 | 180.18 |
| CC(C)=CCCC1(C)CCC2(C)C3CCC4(C)C(C)C(=O)CCC4C3(C)CCC2(C)C1 (centres undefined) [Shionone] | 211.34 | – |
| CC(C)=CCC[C@](C)(O[C@@H]1O[C@H](CO)[C@@H](O)[C@H](O)[C@H]1O)[C@H]1CC[C@]2(C)[C@@H]1[C@H](O)C[C@@H]1[C@@]3(C)CC[C@H](O)C(C)(C)[C@@H]3CC[C@]12C [Ginsenoside Compound K] | – | 257.91 |
| Cn1cncc1[C@@](N)(c1ccc(Cl)cc1)c1ccc2c(c1)c(-c1cccc(Cl)c1)cc(=O)n2C [Tipifarnib] | 215.34 | 215.68 |
| C/C=C1/[C@H](O[C@@H]2O[C@H](CO)[C@@H](O)[C@H](O)[C@H]2O)OC=C(C(=O)OC)[C@H]1CC(=O)OCCc1ccc(O)c(O)c1 [Oleuropein] | – | 217.92 |
| CC(C)=CCC[C@](C)(O[C@@H]1O[C@H](CO)[C@@H](O)[C@H](O)[C@H]1O)[C@H]1CC[C@]2(C)[C@@H]1[C@H](O)C[C@@H]1[C@@]3(C)CC[C@H](O)C(C)(C)[C@@H]3[C@@H](O)C[C@]12C [Ginsenoside F1] | – | 259.18 |
| C[C@]12C=CC(=O)C=C1CC[C@@H]1[C@@H]2C(=O)C[C@@]2(C)[C@H]1CC[C@]2(O)C(=O)CO [Prednisone] | 185.04 | 191.16 |

Other lines, results leading:

| collision cross section (ion adduct: [M+H]+) [Å²] | collision cross section (ion adduct: [M-H]-) [Å²] | Structure (SMILES) |
| --- | --- | --- |
| 181.26 | – | COc1ccc2c(c1)c(CC(=O)O)c(C)n2C(=O)c1ccc(Cl)cc1 [Indometacin] |
| 242.9 | 252.96 | COc1ccc(CC2c3cc(Oc4cc(CC5c6cc(OC)c(OC)cc6CCN5C)ccc4O)c(OC)cc3CCN2C)cc1 (centres undefined) [Neferine] |
| 167.45 | 171.54 | COc1cc(O)ccc1/C=C/C(=O)c1ccc(O)cc1 [Echinatin] |
| 167.93 | 168.67 | COc1cc(O)c2c(c1)oc(=O)c1c3cc(O)c(O)cc3oc21 [Wedelolactone] |
| 151.13 | 158.16 | CCOc1cc(NC(C)=O)ccc1C(=O)OC [Ethopabate] |
| 141.92 | – | CCOC(=O)c1cc2ccccc2oc1=O [Ethyl coumarin-3-carboxylate] |
| 136.8 | 135.33 | Cc1cc(=O)oc2cc(O)c(O)cc12 [4-Methyl-6,7-dihydroxycoumarin] |
| – | 220.58 | COc1ccc(C[C@H]2COC(=O)[C@@H]2Cc2ccc(O[C@@H]3O[C@H](CO)[C@@H](O)[C@H](O)[C@H]3O)c(OC)c2)cc1OC [Arctiin] |
| 136.89 | 135.28 | Cc1cc(=O)oc2cc(O)cc(O)c12 [5,7-Dihydroxy-4-methylcoumarin] |
| – | 139.5 | COC(=O)/C=C/c1ccc(O)cc1 [Methyl 4-hydroxycinnamate] |
| 209.01 | 210.14 | O=c1cc(-c2ccc(O)c(O)c2)oc2cc(O[C@@H]3O[C@H](CO)[C@@H](O)[C@H](O)[C@H]3O)cc(O)c12 [Luteolin-7-O-glucoside] |
| – | 213.46 | O=C(C=Cc1ccc(O)c(O)c1)OC1CC(O)(C(=O)O)CC(O)C1OC(=O)C=Cc1ccc(O)c(O)c1 (centres undefined) [4,5-Dicaffeoylquinic acid] |
| 162 | 161.75 | O=C1C[C@@H](c2ccc(O)cc2)Oc2cc(O)ccc21 [Liquiritigenin] |
| 207.07 | 213.76 | O=c1c(-c2ccc(O)cc2)coc2cc(O[C@@H]3O[C@H](CO)[C@@H](O)[C@H](O)[C@H]3O)cc(O)c12 [Genistin] |
| – | 185.55 | COc1cc(CCC(=O)CC(=O)CCc2ccc(O)c(OC)c2)ccc1O [Tetrahydrocurcumin] |
| 164.02 | 167.35 | COc1cc(O)cc(O)c1C(=O)/C=C/c1ccccc1 [Cardamonin] |
| 181.28 | 176.36 | COc1cc(C=CC(=O)NCCc2ccc(O)cc2)ccc1O [N-trans-Feruloyltyramine] |
| 124.69 | – | O=c1ccc2ccccc2o1 [Coumarin] |
| 159.39 | 160.69 | O=C(O)c1ccccc1Nc1cccc(C(F)(F)F)c1 [Flufenamic acid] |
| 221.54 | 227.62 | C[C@H]1O[C@@H](O[C@@H]2[C@@H](O)[C@H](O)[C@@H](CO)O[C@H]2c2c(O)cc(O)c3c(=O)cc(-c4ccc(O)cc4)oc23)[C@@H](O)[C@@H](O)[C@@H]1O [Vitexin-2''-O-rhamnoside] |
| – | 229.5 | COc1ccc([C@@H]2CC(=O)c3c(O)cc(O[C@@H]4O[C@H](CO)[C@@H](O)[C@H](O)[C@H]4O[C@@H]4O[C@@H](C)[C@H](O)[C@@H](O)[C@H]4O)cc3O2)cc1O [Neohesperidin] |
| 184.69 | – | Nc1ccc(S(=O)(=O)[N-]c2cnc3ccccc3n2)cc1.[Na+] [Sulfaquinoxaline sodium] |
| 158.75 | 160.85 | COc1c(O)c(C)cc2c1C(=O)c1c(O)cccc1C2=O [Obtusifolin] |
| – | 135.48 | Cc1cc(=O)oc2ccc(O)cc12 [6-Hydroxy-4-methylcoumarin] |
| 231.51 | 230.78 | COc1ccc(-c2cc(=O)c3c(O)cc(O)c(-c4cc(-c5cc(=O)c6c(O)cc(O)cc6o5)ccc4OC)c3o2)cc1 [Isoginkgetin] |
| – | 176.94 | O=C(/C=C/c1ccc(O)c(O)c1)OCCc1ccccc1 [Caffeic acid phenethyl ester] |
| – | 138.02 | CC=Cc1ccc(O)c(OC)c1 [Isoeugenol] |
